From patent US7022843B1, “β,β′-dihydroxy meso-substituted chlorins, isobacteriochlorins, and bacteriochlorins” (priority 1999, dated 2006)
Values joined by “and” are separate entries in the source; they are usually repeats but may differ in a detail not shown here. Identical values can stand only once. Like-named read-outs stand apart in the source and are kept apart here.

Key:
L1210 cells [1] = test: Phototoxicity in L1210 cells, MTT viability assay; format: cell-based; settings: phototoxicity, L1210 cells
Method: The above described compounds were tested in vitro for phototoxicity and dark toxicity in L1210 cells as described in the Example section below. Twenty four compounds which were tested for cytotoxicity are listed in Table 3 below along with BPD-MA.
(§1) Phototoxicity was determined with L11210 cells in the presence of the compound as follows: the L1210 cells were exposed to varying concentrations of the compounds in 96-well microtiter plates for one hour at 37° C. and 5% CO2. No fetal calf serum (FCS) was added at this time. The plate was then illuminated for one hour after which a 10% aqueous FCS solution was added to the wells. The plates were then returned to the CO2 incubator overnight. After incubation, the cells were assayed for viability using the MTT assay (Mossman, T. J. Immunol. Meth. 1983, 65, 55).

L1210 cells [2] = test: Dark cytotoxicity in L1210 cells (plates wrapped in aluminum foil); format: cell-based
Method: The above compounds were also tested for dark toxicity. Dark toxicity refers to the toxicity of the drug to cells in the absence of light. This toxicity is, therefore, not due to singlet oxygen mediated cellular damage.
as §1
Dark cytotoxicity was determined while the plates were wrapped in aluminum foil while under the light source.

[3] = 1 h exposure without FCS, 1 h illumination, MTT

SMILES | LD50 (L1210 cells [1]; [3]) | LD50 (L1210 cells [1]; Table 4) | LD50dark (L1210 cells [2]) | LD20dark (L1210 cells [2]; L1210 cells, absence of light) | LD50dark (L1210 cells [2]; L1210 cells, absence of light)
OC1c2nc(c(-c3ccccc3)c3ccc([nH]3)c(-c3ccccc3)c3nc(c(-c4ccccc4)c4ccc([nH]4)c2-c2ccccc2)C=C3)C1O (centres unmarked) [Compound 3, H2TPC(OH)2] | 2.78 M and 1800 ng/mL | 1800 ng/mL | 19000 ng/mL | 7000 ng/mL | –
O=[N+]([O-])c1cccc(-c2c3nc(c(-c4cccc([N+](=O)[O-])c4)c4ccc([nH]4)c(-c4cccc([N+](=O)[O-])c4)c4nc(c(-c5cccc([N+](=O)[O-])c5)c5ccc2[nH]5)C(O)C4O)C=C3)c1 (centres unmarked) [Compound 4, T(m-NO2)PC(OH)2] | 5.43 M and 4500 ng/mL | 4500 ng/mL | 15000 ng/mL | 4500 ng/mL | –
OC1c2nc(c(-c3ccc(Br)cc3)c3ccc([nH]3)c(-c3ccc(Br)cc3)c3nc(c(-c4ccc(Br)cc4)c4ccc([nH]4)c2-c2ccc(Br)cc2)C=C3)C1O (centres unmarked) [Compound 5, T(p-Br)PC(OH)2] | 6.22 M and 6000 ng/mL | 6000 ng/mL | 8000 ng/mL | 1900 ng/mL | –
OC1c2nc(c(-c3cccc(Br)c3)c3ccc([nH]3)c(-c3cccc(Br)c3)c3nc(c(-c4cccc(Br)c4)c4ccc([nH]4)c2-c2cccc(Br)c2)C=C3)C1O (centres unmarked) [Compound 6, T(m-Br)PC(OH)2] | 4.15 M and 4000 ng/mL | 4000 ng/mL | 4000 ng/mL | 1500 ng/mL | –
OC1c2nc(c(-c3cccc(F)c3)c3ccc([nH]3)c(-c3cccc(F)c3)c3nc(c(-c4cccc(F)c4)c4ccc([nH]4)c2-c2cccc(F)c2)C=C3)C1O (centres unmarked) [Compound 7, T(m-F)PC(OH)2] | 6.87 M and 5000 ng/mL | 5000 ng/mL | 6000 ng/mL | 1500 ng/mL | –
OC1c2nc(c(-c3ccccc3F)c3ccc([nH]3)c(-c3ccccc3F)c3nc(c(-c4ccccc4F)c4ccc([nH]4)c2-c2ccccc2F)C=C3)C1O (centres unmarked) [Compound 8, T(o-F)PC(OH)2] | 4.17 M and 3000 ng/mL | 3000 ng/mL | 15000 ng/mL | 5000 ng/mL | –
OC1c2nc(c(-c3c(F)c(F)c(F)c(F)c3F)c3ccc([nH]3)c(-c3c(F)c(F)c(F)c(F)c3F)c3nc(c(-c4c(F)c(F)c(F)c(F)c4F)c4ccc([nH]4)c2-c2c(F)c(F)c(F)c(F)c2F)C=C3)C1O (centres unmarked) [Compound 9, TF5PC(OH)2] | 1.79 M and 1800 ng/mL | 100 ng/mL | 12000 ng/mL | 5000 ng/mL | –
Oc1ccc(-c2c3nc(c(-c4ccc(O)cc4)c4ccc([nH]4)c(-c4ccc(O)cc4)c4nc(c(-c5ccc(O)cc5)c5ccc2[nH]5)C(O)C4O)C=C3)cc1 (centres unmarked) [Compound 10, T(p-OH)PC(OH)2] | 4.92 M and 3500 ng/mL | 3500 ng/mL | 15000 ng/mL | 5000 ng/mL | –
Oc1cccc(-c2c3nc(c(-c4cccc(O)c4)c4ccc([nH]4)c(-c4cccc(O)c4)c4nc(c(-c5cccc(O)c5)c5ccc2[nH]5)C(O)C4O)C=C3)c1 (centres unmarked) [Compound 11, T(m-OH)PC(OH)2] | 0.0211 M and 15 ng/mL | 15 ng/mL | 12500 ng/mL | 10000 ng/mL | –
COC(=O)c1ccc(-c2c3nc(c(-c4ccc(C(=O)OC)cc4)c4ccc([nH]4)c(-c4ccc(C(=O)OC)cc4)c4nc(c(-c5ccc(C(=O)OC)cc5)c5ccc2[nH]5)C(O)C4O)C=C3)cc1 (centres unmarked) [Compound 12, T(p-CO2Me)PC(OH)2] | 0.136 M and 120 ng/mL | 120 ng/mL | – | 3000 ng/mL | 15000 ng/mL
COc1cccc(-c2c3nc(c(-c4cccc(OC)c4)c4ccc([nH]4)c(-c4cccc(OC)c4)c4nc(c(-c5cccc(OC)c5)c5ccc2[nH]5)C(O)C4O)C=C3)c1 (centres unmarked) [Compound 15, T(m-OCH3)PC(OH)2] | 1.3 M and 1000 ng/mL | – | – | – | –
